{
  "source": "patent US20050170015A1",
  "about": "(priority 2000, published 2005)",
  "key": {"[1]": {"conditions": "Ex# E048; oral 40 mg/kg; 0/8 tumors"}, "[2]": {"system": "RIF-1 murine fibrosarcoma", "experiment": "RIF-1 tumor growth delay, thiocolchicine alone and with cisplatin, camptothecin or amonafide (Example 6)", "type": "in vivo, C3H mice", "method": "Cisplatin for Injection, USP, was obtained as the commercial product from Bristol Laboratories (Platinol®, Lot No. K1F26A). Camptothecin was obtained from Boehinger-Ingelheim Lot 142088. Amonafide dihydrochloride was prepared in house, in a solution of 20 mg/ml. 0.9% Sodium Chloride for Injection, USP (saline) was manufactured by Abbott Laboratories (Lot No. 55-199-DK). Sterile Water for Injection, USP (WFI) was manufactured by Lyphomed, Inc. (Lot No. 390849). DMSO was obtained from Sigma (St. Louis, Mo.). DMF (dimethylformamide) was obtained from Sigma (St. Louis, Mo.). PEG400 was obtained from Sigma (St. Louis, Mo.).\nFor preparation of cisplatin formulation, the contents of a 10-mg vial of lyophilized CDDP (Cisplatin for Injection) was resuspended with 10 mL WFI to produce a 1 mg/mL CDDP suspension.\nCamptothecin was prepared in a solution of DMSO at 0.75 mg/ml.\nThis was further diluted using saline to […].\nAmonafide was diluted to 15 mg/ml with saline.\nFood and water were available ad libitum.\nTumors: The RIF-1 murine fibrosarcoma cell line was maintained in in vitro culture (Wayrnouth medium supplemented with 20% fetal bovine serum) at 37° C. in a humidified 5% CO2 incubator. Log-phase RIF-1 cells were trypsinized and harvested from cell culture flasks to yield a concentration of 4×10^6 cells/mL, then injected intradermally in a volume of 50 μL (equivalent to 2×10^5 cells per injection) into both flanks of each mouse. Nine days later, when tumors reached approximately 100 mm^3 in size, the animals were randomized to different treatment groups.\nEvaluation of Tumor Growth Delay: Tumors were measured three times weekly for up to 22 days with Vernier calipers. Tumor volume (cubic millimeters, mm^3) was calculated according to the formula: [formula] in which D1-3 are perpendicular diameters measured in millimeters (mm). Tumor volume quadrupling time (TVQT), defined as the time required for a tumor to grow to four times (4×) its initial volume (at the time of treatment), was used as a study endpoint.\nThe TVQT was determined for each treatment group and expressed in days as the mean±standard error (SE)."}, "[3]": {"conditions": "Ex# E031, IP 4 mg/kg, 4/8 tumors"}, "[4]": {"conditions": "Ex# E048, oral 20 mg/kg, 12/16 tumors"}},
  "data": [
    {"smiles": "COc1cc2c(c(OC)c1OC)-c1ccc(SC)c(=O)cc1[C@@H](NC(C)=O)CC2", "note": "[Thiocolchicine, (S)-N-[5,6,7,9-Tetrahydro-1,2,3-trimethoxy-10-(methylthio)-9-oxobenzo[a]heptalen-7-yl]-acetamide]", "values": [
      {"measurement": "Mortality (printed in the Days to 4× column)", "setting": "[1]", "value": "All Died"},
      {"measurement": "Days to 4× (ave ± SE)", "setting": "[2]; Ex# E031, IP 1 mg/kg", "value": "8.7 ± 0.4", "unit": "days"},
      {"measurement": "Days to 4× Median", "setting": "[2]; Ex# E031, IP 1 mg/kg", "value": 8.7, "unit": "days"},
      {"measurement": "Delay", "setting": "[2]; Ex# E031, IP 1 mg/kg", "value": 2.08, "unit": "days"},
      {"measurement": "T/C", "setting": "[2]; Ex# E031, IP 1 mg/kg", "value": 1.3},
      {"measurement": "Days to 4× (ave ± SE)", "setting": "[2]; Ex# E031, IP 2 mg/kg", "value": "8.9 ± 0.9", "unit": "days"},
      {"measurement": "Days to 4× Median", "setting": "[2]; Ex# E031, IP 2 mg/kg", "value": 8.1, "unit": "days"},
      {"measurement": "Delay", "setting": "[2]; Ex# E031, IP 2 mg/kg", "value": 1.48, "unit": "days"},
      {"measurement": "T/C", "setting": "[2]; Ex# E031, IP 2 mg/kg", "value": 1.3},
      {"measurement": "Days to 4× (ave ± SE)", "setting": "[2]; [3]", "value": "13.2 ± 1.2", "unit": "days"},
      {"measurement": "Days to 4× Median", "setting": "[2]; [3]", "value": 13.4, "unit": "days"},
      {"measurement": "Delay", "setting": "[2]; [3]", "value": 6.77, "unit": "days"},
      {"measurement": "T/C", "setting": "[2]; [3]", "value": 2.0},
      {"measurement": "Days to 4× (ave ± SE)", "setting": "[2]; Ex# E047, IP 1 mg/kg", "value": "10.88 ± 1.43", "unit": "days"},
      {"measurement": "Days to 4× Median", "setting": "[2]; Ex# E047, IP 1 mg/kg", "value": 10.13, "unit": "days"},
      {"measurement": "Delay", "setting": "[2]; Ex# E047, IP 1 mg/kg", "value": 2.57, "unit": "days"},
      {"measurement": "T/C", "setting": "[2]; Ex# E047, IP 1 mg/kg", "value": 1.4},
      {"measurement": "Days to 4× (ave ± SE)", "setting": "[2]; Ex# E047, IP 1 × 2 mg/kg", "value": "12.49 ± 0.52", "unit": "days"},
      {"measurement": "Days to 4× Median", "setting": "[2]; Ex# E047, IP 1 × 2 mg/kg", "value": 13.16, "unit": "days"},
      {"measurement": "Delay", "setting": "[2]; Ex# E047, IP 1 × 2 mg/kg", "value": 5.60, "unit": "days"},
      {"measurement": "T/C", "setting": "[2]; Ex# E047, IP 1 × 2 mg/kg", "value": 1.7},
      {"measurement": "Days to 4× (ave ± SE)", "setting": "[2]; Ex# E047, Oral 10 mg/kg", "value": "11.78 ± 2.08", "unit": "days"},
      {"measurement": "Days to 4× Median", "setting": "[2]; Ex# E047, Oral 10 mg/kg", "value": 9.11, "unit": "days"},
      {"measurement": "Delay", "setting": "[2]; Ex# E047, Oral 10 mg/kg", "value": 1.56, "unit": "days"},
      {"measurement": "T/C", "setting": "[2]; Ex# E047, Oral 10 mg/kg", "value": 1.6},
      {"measurement": "Days to 4× (ave ± SE)", "setting": "[2]; Ex# E047, Oral 10 × 2 mg/kg", "value": "13.65 ± 1.60", "unit": "days"},
      {"measurement": "Days to 4× Median", "setting": "[2]; Ex# E047, Oral 10 × 2 mg/kg", "value": 13.29, "unit": "days"},
      {"measurement": "Delay", "setting": "[2]; Ex# E047, Oral 10 × 2 mg/kg", "value": 5.73, "unit": "days"},
      {"measurement": "T/C", "setting": "[2]; Ex# E047, Oral 10 × 2 mg/kg", "value": 1.8},
      {"measurement": "Days to 4× (ave ± SE)", "setting": "[2]; Ex# E048, oral 10 mg/kg", "value": "10.14 ± 1.15", "unit": "days"},
      {"measurement": "Days to 4× Median", "setting": "[2]; Ex# E048, oral 10 mg/kg", "value": 9.01, "unit": "days"},
      {"measurement": "Delay", "setting": "[2]; Ex# E048, oral 10 mg/kg", "value": 2.77, "unit": "days"},
      {"measurement": "T/C", "setting": "[2]; Ex# E048, oral 10 mg/kg", "value": 1.6},
      {"measurement": "Days to 4× (ave ± SE)", "setting": "[2]; [4]", "value": "12.34 ± 0.75", "unit": "days"},
      {"measurement": "Days to 4× Median", "setting": "[2]; [4]", "value": 11.52, "unit": "days"},
      {"measurement": "Delay", "setting": "[2]; [4]", "value": 5.28, "unit": "days"},
      {"measurement": "T/C", "setting": "[2]; [4]", "value": 1.9}
    ]}
  ]
}
